In test [1] the test system is swine whipworm (Trichuris suis). As to the kind of experiment: Test of anthelmintic effect in naturally infected pigs, E.P.G. on 7th day: swine whipworm (Test Examples A9, B9, C9, D9). The format is in vivo. Particulars: pig; for Change of E.P.G. 7th day: one administration. As for the experimental part:
(§1) Six pigs infected with swine roundworm and swine whipworm (naturally infected pigs) were employed in groups each of two pigs.
(§2) As a control, only gelatin capsules were administered orally to the two pigs.
(§3) Before administration and on the 7th day after. administration, fecal matter testing was conducted to calculate the E.P.G., and the anthelmintic effect was judged by the changing of the E.P.G. to negative'.
(§4) 50 mg of each compound was placed in a gelatin capsule per 1 Kg of body weight and administered orally to each of the two pigs. As control, only gelatin capsules were administered orally to two pigs.
(§5) 30 mg of each compound was placed in a gelatin capsule per 1 Kg of body weight and administered orally to each of the two pigs. As control, only gelatin capsules were administered orally to two pigs.

The subject of test [2] is swine Oesophagostomum (Oesophagostomum dentatum). Kind of test: Test of anthelmintic effect against swine Oesophagostomum in naturally infected pigs, E.P.G. on 7th day (Test Examples A8, B8, C8, D8). The format is in vivo. How it is done: Six pigs infected with swine Oesophagostomum (naturally infected pigs) were employed by grouping them into groups each of two pigs.
as §2
(§6) Before administration and on the 7th day after administration, fecal matter testing was conducted to calculate the E.P.G., and the anthelmintic effect was judged by the changing of the E.P.G. to negative.

In test [3] the test system is swine roundworm (Ascaris suum). Kind of test: Test of anthelmintic effect in naturally infected pigs, E.P.G. on 7th day: swine roundworm (Test Examples A9, B9, C9, D9). Type of test: in vivo. Conditions: for Change of E.P.G. 7th day: one administration. As for the experimental part: as §1, §2, §3, §4, §5
In test [4] the test system is fowl roundworm (Ascaridia galli). Kind of test: Anthelmintic test in chickens artificially infected with fowl roundworm, single oral dose in gelatin capsule, worm bodies counted within 48 hours (Test Examples A1, B1, C1, D1). The format is in vivo. Conditions: Ascaridia galli, po, 48 h, chicken, chickens No.1-3, read-out: Anthelmintic effect after 48 hours; for inhibition in vivo at 30 mg/kg: 30 mg/Kg oral in gelatin capsule; for inhibition in vivo at 15 mg/kg: 15 mg/Kg oral in gelatin capsule. An outline of the steps: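 Groups of three chickens with confirmed Ascaridia galli infection given a single oral dose in gelatin capsule (10 and 20 mg/kg in A1 and B1; 30 and 50 mg/kg in C1; 15 and 30 mg/kg in D1). Worms expelled over 48 h and those remaining in the gut at necropsy counted to give anthelmintic percentage.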

Test [5] concerns Liver fluke; Fasciola hepatica (F. hepatica). Kind of test: Test of anthelmintic effect against rat infected experimentally with liver fluke (Test Examples A11, B11, C11, D11). The format is in vivo. Conditions: for anthelmintic effect: rats, five administrations in a dose of 50 mg/Kg each.
Test [6] concerns fowl roundworm (As. galli). Kind of test: Anthelmintic test in chickens artificially infected with fowl roundworm, compound added to feed, E.P.G. and worm count up to 21st day (Test Examples A2, B2, C2, D2). Type of test: in vivo, Ascaridia galli. Particulars: chicken; for inhibition in vivo at 25 ppm / inhibition in vivo at 50 ppm: Ascaridia galli, feed or water, 504 h, read-out: Anthelmintic effect.

In test [7] the test system is Trichostrongylidae (Trichostrongylus colubriformis). Kind of test: Anthelmintic test against sheep Trichostrongylidae in naturally infected sheep, E.P.G. on 7th day (Test Examples A7, B7, C7, D7). The format is in vivo. How it is done: Two sheep infected with Trichostrongylidae (naturally infected sheep) were employed.
The compound provided for the test was Compound No. Al, 15 mg of which was placed in a gelatin capsule per 1 Kg of body weight and administered orally to one of the sheep. As a control, only gelatin capsules were administered orally to the other sheep.
as §6
As control, only gelatin capsules were administered orally to the other sheep.
As control, only gelatin capsule was administered orally to the other sheep.

Test [8] has as its system stomach worm (Haemonchus controtus). As to the kind of experiment: Anthelmintic test against cow stomach worm in naturally infected cows, E.P.G. on 7th day (Test Examples A6, B6, C6, D6). Type of test: in vivo. How it is done:
Three cows infected with stomach worm (naturally infected cows) were employed by grouping them into a group of two and a group of one.
(§7) As control, only gelatin capsules were administered orally to the one cow.
as §6, §7, §7

The subject of test [9] is canine filaria; Dirofilaria immitis. Kind of test: Test of anthelmintic effect against canine filaria in naturally infected dogs, subcutaneous injection, microfilaria in blood and adult filaria at autopsy (Test Examples A10, B10, C10, D10). Type of test: in vivo. Particulars: for inhibition in vivo at 20 mg/kg: Dirofilaria immitis, sc, 240 h.
In test [10] the test system is canine whipworm (Trichuris vulpis). As to the kind of experiment: Anthelmintic test in naturally infected dogs with mixed infections, E.P.G. on 7th day: canine whipworm (Test Examples A3, B3, C3, D3). The format is in vivo. As for the experimental part:
(§8) Three dogs with mixed infections by canine whipworm (Trichuris vulpis), canine hookworm (Ancylostoma caninum) and canine roundworm (Toxocara canis) (naturally infected dogs) were employed in a group of two and a group of one.
(§9) The compound provided for the test was Compound No.Al, and 20 mg/Kg thereof was placed in a gelatin capsule per 1 Kg of body weight, and administered orally to the two dogs. As control, only a gelatin capsule was administered orally to the one dog.
as §6
(§10) As control, only gelatin capsules were administered orally to the one dog.
(§11) The same method as in Test Example A3, but the compound provided for the test was Compound No. Cl. 30 mg/Kg of this compound was placed in a gelatin capsule per 1 Kg of body weight and administered orally to the two dogs. As control, only gelatin capsules were administered orally to the one dog.

The test system of test [11] is canine hookworm (Ancylostoma caninum). Kind of test: Anthelmintic test in naturally infected dogs with mixed infections, E.P.G. on 7th day: canine hookworm (Test Examples A3, B3, C3, D3). Particulars: dog. Type of test: in vivo. How it is done: as §8, §9, §6, §10, §11
In test [12] the test system is canine roundworm (Toxocara canis). As to the kind of experiment: Anthelmintic test in naturally infected dogs with mixed infections, E.P.G. on 7th day: canine roundworm (Test Examples A3, B3, C3, D3). The format is in vivo. Particulars: dog, 20 mg/Kg, one administration. How it is done:
as §8, §9, §6, §10, §11

Where [13] appears, read: before 20 mg/Kg (baseline), hydrochloride.

The source of these data is patent EP0103895A2, “Novel hydroxylamine derivatives, production and use thereof” (MEIJI SEIKA KABUSHIKI KAISHA, priority 1982, dated 1984).

“And” between values parts separate entries of the source, which are not always exact repeats. Equal values may be shown once. Read-outs that look alike come from different tables or passages of the source.

Take `C=CCON(CC=C)C(=O)c1ccccc1` [Compound C6]: the “Change of E.P.G. 7th day” value in test [1] (30 mg/Kg oral in gelatin capsule) is on record as 0; in test [2] (pig, Oesophagostomum dentatum, 20 mg/Kg, one administration), 0; in test [3] (pig, Ascaris suum, 30 mg/Kg oral in gelatin capsule) it was 0. In addition, the “Change of E.P.G. Before administration” value in test [1] (before 30 mg/Kg oral (baseline)) is 4,300 and 5,800. The “anthelmintic effect” value is reported as “marked anthelmintic effect” in [2] (pigs, one administration of 20 mg/Kg); “marked anthelmintic effect” in test [3] (pigs infected with swine roundworm and swine whipworm (statement covers both), one administration of 30 mg/Kg); “marked antihelmintic effect” in test [5]. Further, in test [4], the inhibition in vivo at 30 mg/kg stood at 100%. Also, the inhibition in vivo at 50 mg/kg in test [4] (50 mg/Kg oral in gelatin capsule) was determined as 100%. For the same compound, the “Condition of fluke body” value in test [5] (rat, 50 mg/Kg x 5) is “dead”. In addition, in test [5] (rat, 50 mg/Kg x 5), the “Presence or absence of fluke egg in fecal matter On 21st day after the last administration” value was “-”. For the same compound, the inhibition in vivo at 25 ppm in [6] (25 ppm in feed) came to 100%. For the same compound, the inhibition in vivo at 50 ppm in test [6] (50 ppm in feed) was found to be 100%. In addition, the “Change of E.P.G. 21st day” value in [6] (25 ppm in feed) and in test [6] (50 ppm in feed) was 0 each time.

On to `C=CCNOCC.Cl` [Compound D1, N-allyl-O-ethylhydroxylamine hydrochloride], for which the “Change of E.P.G. 7th day” value in test [1] (20 mg/Kg) is recorded as 0; in test [3] (pig, Ascaris suum, 20 mg/Kg), 0; in test [7] (Trichostrongylus colubriformis, 15 mg/Kg, one administration), 0; in test [8] (cow, Haemonchus controtus, 15 mg/Kg, one administration), 0. Moreover, the “Change of E.P.G. Before administration” value in test [1] (setting [13]) was 6,600 and 4,200; in [3] (pig, Ascaris suum, before 20 mg/Kg (baseline), hydrochloride), 2,700 and 3,100; in [7] (Trichostrongylus colubriformis, before 15 mg/Kg (baseline)), 2,900; in test [8] (cow, Haemonchus controtus, before 15 mg/Kg (baseline), hydrochloride), 3,700 and 5,400. Further, the inhibition in vivo at 15 mg/kg in [4] is 80 to 90%. Moreover, in test [4], the inhibition in vivo at 30 mg/kg was 100%. Besides, the “anthelmintic effect” value in [7] (one administration of 15 mg/Kg) was “marked anthelmintic effect”; in [8] (cows, one administration of 15 mg/Kg), “marked anthelmintic effect”. In addition, in test [6] (25 ppm in feed), the inhibition in vivo at 25 ppm fell in the range of 80 to 90%. The inhibition in vivo at 50 ppm in [6] (50 ppm in feed) was found to be 100%.

For `C#CCNOCC.Cl` [Compound D10, N-propargyl-O-ethylhydroxylamine hydrochloride], the “Change of E.P.G. 7th day” value amounted to 0 in test [1] (20 mg/Kg) and 0 in test [3] (pig, Ascaris suum, 20 mg/Kg). Besides, the inhibition in vivo at 20 mg/kg in test [9] (dog, 20 mg/Kg x 3, subcutaneous injection, read-out: Effect on adult filaria: Percent of worms killed) was 54%; in [9] (dogs, administration of 20 mg/Kg repeated three times, given as about 50% or more, read-out: anthelmintic effect against adult filaria), no less than 50%. The “Number of microfilaria/20µl On 10th day after the administration” value in test [9] (dog, 20 mg/Kg x 3, subcutaneous injection) is 0 /20µl. For the same compound, in test [9] (dog, 20 mg/Kg x 3, subcutaneous injection, hydrochloride, 20 mg/kg), the “Effect on adult filaria: Number of worms killed/ Total parasite” value was 18/33 and 20/28. Also, the “anthelmintic effect against microfilaria (mf)” value in test [9] (dogs, administration of 20 mg/Kg repeated three times) was “marked anthelmintic effect”. In addition, the inhibition in vivo at 15 mg/kg in test [4] is 100%. In [4], the inhibition in vivo at 30 mg/kg came out at 100%.

Consider `C#CCNOCC=C.Cl` [Compound D14, N-propargyl-O-allylhydroxylamine hydrochloride], for which the “Change of E.P.G. 7th day” value came to 0 in [10] (dog, Trichuris vulpis, 20 mg/Kg, one administration); 0 in test [11] (20 mg/Kg, one administration); 0 in [12]. For the same compound, the “anthelmintic effect” value is given as “marked anthelmintic effect” in test [10] (dogs with mixed infections (Trichuris vulpis, Ancylostoma caninum, Toxocara canis; statement covers all three), one administration of 20 mg/Kg) and “marked anthelmintic effect” in test [5]. For the same compound, the “Change of E.P.G. Before administration” value in [11] (setting [13]) was 3,300 and 6,800. Besides, the “Condition of fluke bodies” value in [5] (rat, 50 mg/Kg x 5) is “dead”. Moreover, the “Presence or absence of fluke egg in fecal matter On 21st day after the last administration” value in test [5] (rat, 50 mg/Kg x 5) is “-”. Moreover, in test [6] (25 ppm in feed), the inhibition in vivo at 25 ppm is 80 to 90%. For the same compound, the inhibition in vivo at 50 ppm in test [6] (50 ppm in feed) was found to be 100%.
